Reference: patent publication US20110190235A1, “BORON-CONTAINING SMALL MOLECULES AS ANTIPROTOZOAL AGENTS” (Anacor Pharmaceuticals, Inc., priority 2009, published 2011)
≈ marks a conversion by molar mass, not a printed value. Like-named read-outs stand apart in the source and are kept apart here.

Key:
[1] = Kinetic solubility by nephelometric (light scattering) method; type: physicochemical; details: phosphate buffered saline, aqueous buffer, kinetic from dmso stock, PBS pH 7.4
Protocol: The kinetic solubilities of compounds were estimated using a nephelometric (light scattering) method. Briefly, compounds were serially diluted in DMSO, followed by dilution in PBS pH 7.4. After incubation, the amount of light scattered by a compound at each concentration was measured. […] At concentrations above the solubility limit, the compound precipitates and the precipitant in the well scatters the light, generating a signal. Higher levels of precipitant in a well scatter more light and produce a stronger signal.
A stock solution of compound (25 mM in DMSO) was prepared, and was serially diluted in DMSO in two-fold increments in a row of a 96 well plate to a lowest concentration of 24 μM. A duplicate plate was prepared by transfer of half of the volume of each well to a new plate. Each well containing DMSO solution of the test compound was then diluted further (1:100) with phosphate buffered saline (pH 7.4) to provide aqueous solutions of compound at the following final concentrations: 250, 125, 62.5, 31.3, 15.6, 7.8, 3.9, 2.0, 1.0, 0.5 and 0.2 μM. All liquid handling stages were performed on a Beckman Coulter Biomek NX Laboratory Automation Workstation. Each compound was diluted and tested in duplicate, providing four separate wells at each test concentration.
The test solutions of compound were incubated at room temperature for 90 minutes and then analyzed using a Thermoskan Ascent nephelometric plate reader. The nephelometer protocol included two steps: first, the plate was shaken for 60 seconds at 1200 rpm, then each well of the plate was read in succession with an 800 ms settling delay between measurements. The total measurement time for a single plate was less than 4 minutes.
The four values (in nephelometric units) obtained for each compound at each concentration were averaged and plotted on a log scale versus concentration.

[2] = tested on: bloodstream-form trypanosome T. brucei brucei 427 strain; test: Trypanosoma brucei brucei high-throughput in vitro drug sensitivity assay (resazurin); type: cell-based; details: for Selectivity Index (L929 IC50 / T. b. brucei IC50): T. b. brucei vs L929; for IC50: Trypanosoma brucei, 72 hrs incubation
[3] = L929 cytotoxicity evaluation (resazurin); type: cell-based; details: mouse, L929 mouse fibroblast cells; 72 hrs incubation; read-out: Cytotox L-929 IC50
In short: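 Mouse L929 fibroblasts (1×10^4/mL seeding, attached overnight) were treated 72 h at 37 °C, 5% CO2 with serially diluted compounds in DMSO in D-MEM/10% FBS. Viability read by resazurin fluorescence after 3–4 h (ex 544/em 590 nm); IC50 from sigmoidal fits of single data points.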

Row | SMILES | solubility at 90 min [1] | Selectivity Index (L929 IC50 / T. b. brucei IC50) [2] | IC50 ([2]; read-out: T. b. brucei IC50) | IC50 ([2]; read-out: T.b. brucei IC50) | IC50 at 72 h [3]
1 | O=C(Nc1ccc2c(c1)B(O)OC2C1CCCC1)c1ccccc1C(F)(F)F (stereo not shown) [compound 17, N-(3-Cyclopentyl-1-hydroxy-1,3-dihydro-benzo[c][1,2]oxaborol-6-yl)-2-trifluoromethyl-benzamide] | 25 µM (≈ 9.73 µg/mL) | >15 | 1.68 µM | 0.655 µg/mL | > 10 µg/mL
2 | O=C(Nc1ccc2c(c1)B(O)OC2C1CCCC1)c1ccc(F)cc1C(F)(F)F (stereo not shown) [compound 19, N-(3-Cyclopentyl-1-hydroxy-1,3-dihydro-benzo[c][1,2]oxaborol-6-yl)-4-fluoro-2-trifluoromethyl-benzamide] | 100 µM (≈ 40.7 µg/mL) | >3 | 7.81 µM | 3.18 µg/mL | > 10 µg/mL
3 | CC(C)CC1OB(O)c2cc(NC(=O)c3ccc(F)cc3C(F)(F)F)ccc21 (stereo not shown) [compound 23, 4-Fluoro-N-(1-hydroxy-3-isobutyl-1,3-dihydro-benzo[c][1,2]oxaborol-6-yl)-2-trifluoromethyl-benzamide] | 25 µM (≈ 9.88 µg/mL) | >4 | 6.1 µM | 2.41 µg/mL | > 10 µg/mL
4 | CC1(C)OB(O)c2cc(NC(=O)c3ccccc3)ccc21 [compound 26, N-(1-Hydroxy-3,3-dimethyl-1,3-dihydro-benzo[c][1,2]oxaborol-6-yl)-benzamide] | 200 µM (≈ 56.2 µg/mL) |  |  | > 5 µg/mL | > 10 µg/mL
5 | CC(C)(C)c1ccc(C(=O)Nc2ccc3c(c2)B(O)OC3(C)C)cc1 [compound 33, 4-tert-Butyl-N-(1-hydroxy-3,3-dimethyl-1,3-dihydro-benzo[c][1,2]oxaborol-6-yl)-benzamide] | 6 µM (≈ 2.02 µg/mL) |  |  | 0.229 µg/mL | > 10 µg/mL
6 | CC1(C)OB(O)c2cc(NC(=O)c3ccccc3C(F)(F)F)ccc21 [compound 34, N-(1-Hydroxy-3,3-dimethyl-1,3-dihydro-benzo[c][1,2]oxaborol-6-yl)-2-trifluoromethyl-benzamide] | 50 µM (≈ 17.5 µg/mL) | >94 | 0.304 µM | 0.106 µg/mL | > 10 µg/mL
7 | CC1(C)OB(O)c2cc(NC(=O)c3ccccc3Cl)ccc21 [compound 38, 2-Chloro-N-(1-hydroxy-3,3-dimethyl-1,3-dihydro-benzo[c][1,2]oxaborol-6-yl)-benzamide] | 13 µM (≈ 4.1 µg/mL) | >60 | 0.532 µM | 0.168 µg/mL | > 10 µg/mL
8 | CC1(C)OB(O)c2cc(NC(=O)c3ccccc3Br)ccc21 [compound 39, 2-Bromo-N-(1-hydroxy-3,3-dimethyl-1,3-dihydro-benzo[c][1,2]oxaborol-6-yl)-benzamide] | 50 µM (≈ 18 µg/mL) | >44 | 0.631 µM | 0.227 µg/mL | > 10 µg/mL
9 | CC1(C)OB(O)c2cc(NC(=O)c3ccc(F)cc3)ccc21 [compound 44, 4-Fluoro-N-(1-hydroxy-3,3-dimethyl-1,3-dihydro-benzo[c][1,2]oxaborol-6-yl)-benzamide] | 100 µM (≈ 29.9 µg/mL) |  | > 16.7 µM | > 5 µg/mL | > 10 µg/mL
10 | CC1(C)OB(O)c2cc(NC(=O)c3ccc(Cl)cc3Cl)ccc21 [compound 65, 2,4-Dichloro-N-(1-hydroxy-3,3-dimethyl-1,3-dihydro-benzo[c][1,2]oxaborol-6-yl)-benzamide] | 50 µM (≈ 17.5 µg/mL) |  |  | 0.278 µg/mL | > 10 µg/mL
11 | CC1(C)OB(O)c2cc(NC(=O)c3ccc(Br)cc3Cl)ccc21 [compound 76, 4-Bromo-2-chloro-N-(1-hydroxy-3,3-dimethyl-1,3-dihydro-benzo[c][1,2]oxaborol-6-yl)-benzamide] | 25 µM (≈ 9.86 µg/mL) |  |  | 0.185 µg/mL | > 10 µg/mL
